Assay: In vitro skin penetration, full thickness pig ear skin, Franz-type diffusion cells, 3H-BMV
Assay type: in vitro ADME
Experimental: To investigate the skin penetration and permeation of BMV from compositions according to example 1, a skin diffusion experiment was conducted. Full thickness skin from pig ears was used in the study. The skin was cleaned and kept frozen at −18° C. before use. On the day prior to the experiment the skin was placed in a refrigerator (5±3° C.) for slow defrosting.
Static Franz-type diffusion cells with an available diffusion area of 3.14 cm^2 and receptor volumes ranging from 8.6 to 11.1 ml were used in substantially the manner described by T. J. Franz, “The finite dose technique as a valid in vitro model for the study of percutaneous absorption in man”, in Current Problems in Dermatology, 1978, J. W. H. Mall (Ed.), Karger, Basel, pp. 58-68. The specific volume was measured and registered for each cell. A magnetic bar was placed in the receptor compartment of each cell. After mounting the skin, physiological saline (35° C.) was filled into each receptor chamber for hydration of the skin. The cells were placed in a thermally controlled water bath which was placed on a magnetic stirrer set at 300 rpm. […]
Samples (1 ml) of the receptor fluid remaining in the diffusion cell were collected and analysed.
The concentration of ^3H-BMV in the samples were determined by liquid scintillation counting.

## CCCCC(=O)O[C@]1(C(=O)CO)[C@@H](C)C[C@H]2[C@@H]3CCC4=CC(=O)C=C[C@]4(C)[C@@]3(F)[C@@H](O)C[C@@]21C [BMV, betamethasone valerate]
Receptor medium acetate buffer pH 5.5 with 1% methyl-β-cyclodextrin
  permeation of BMV into the receptor medium: None
Stratum corneum versus epidermis, FIG. 3
  accumulation of BMV in skin layers: mainly accumulated in the stratum corneum

Source: US20160206629A1, “TOPICAL COMPOSITION COMPRISING A FILM-FORMING POLYMER FOR DELIVERING AN ACTIVE INGREDIENT TO SKIN” (LEO Pharma A/S, priority 2012, published 2016)
